The text below walks through data of patent US10647700B2, “EZH2 inhibitor and use thereof” (TARAPEUTICS SCIENCE INC., priority 2017, dated 2020).

For experiment [1], the system named is H3K27m3 methylation in Pfeiffer cells. The experiment can be described thus: Western Blot of H3K27m3 methylation in Pfeiffer cells. In kind it is cell-based. As to conditions: for IC50: 72 hours treatment, H3K27m3 methylation by Western Blot; for effect compared with control compounds in Western Blot verification on cells: versus EPZ6438 and GSK126. The protocol:
Meanwhile, the inventors further conducted Western Blot with Pfeiffer cells (purchased from ATCC, USA) for verification. […] Effect of compounds on H3K27m3 methylation in cells was assessed.

Experiment [2] has as its target PRC2 protein complex comprising EZH2(Y641F) (Homo sapiens (Human), UniProt Q15910, Y641F). Kind of experiment: EZH2(Y641F) TR-FRET enzymatic activity assay. To be noted: for activity compared with control compounds in the assay using a TR-FRET kit: versus GSK126 and EPZ6438.
Procedure: Subsequently 5 μL of the assay antibody, H3K27me3-Eu(K)Ab (purchased from cisbio bioassays, USA, #61 KC3KAE) and 5 μL Streptavidin-XL665 (purchased from cisbio bioassays, USA, #610SAXLA), were added and incubated for 1 hour at room temperature.
In another experiment the target is EZH2 (Homo sapiens (Human), UniProt Q15910). The experiment can be described thus: E-cadherin promoter luciferase reporter gene primary screening in 293T cells. To be noted: 293T cells treated for 24 hours, Dual-Glo luciferase; for 1 μM relative fluorescence intensity: compound 1 μM; for 10 μM relative fluorescence intensity: compound 10 μM. It is filed as cell-based. The text has this:
EZH2 suppresses the expression of downstream E-cadherin, and upon EZH2 suppression, expression of E-cadherin will increase. Based on such principle, a reporter gene expression vector was constructed using luciferase.
The amplified fragments after PCR and the PGL4.1 vector (purchased from TAKARA, Japan) were respectively subjected to enzyme digestion with SacI and BglII (purchased from TAKARA, Japan), and then purified with PCR cleanup kit (Axygen PCR cleanup kit). Subsequently, the purified and enzyme-digested PCR products was ligated to the purified and enzyme-digested PGL4.1 vector using ligase solution I (DNA Ligation Kit Ver.2.1, purchased from TAKARA, Japan), and subjected to transformation. Single clones were then screened out and subjected to sequencing, and the obtained positive plasmid containing promoter fragments of Ecadherin was named E-cadherin RE-PGL4.1.
Meanwhile, a Renilla fluorescent vector was constructed using PCDNA4.1 (purchased from Thermofisher, USA) as the template to amplify the fragment of CMV promoter. After enzymatic digestion of the amplified CMV sequences and pGL4.70 vector (purchased from Promega, USA) with KpnI and XhoI (purchased from Promega, USA), purification was conducted with PCR cleanup kit (Axygen PCR cleanup kit). Then the enzyme-digested PCR product was ligated to the enzyme-digested PGL4.70 vector using ligase solution I (DNA Ligation Kit Ver.2.1, purchased from TAKARA, Japan) and the resultant was subjected to transformation. Subsequently single clones were screened and subjected to sequencing, and the obtained plasmid that contained CMV sequence was named as Plasmid Renilla luciferase-pGL4.70. Said plasmid utilized CMV promoter to achieve high expression of Renilla luciferase, which served as the control fluorescence for the primary screening system.
The cells were firstly added with 20 μL Dual-Glo® Luciferase Assay Reagent, then incubated under room temperature for 10 minutes, and read on microplate reader Spectramax i3 (Molecular Devices, USA) to obtain the data of primary screening, which is shown in Table 1.

Molecules are shown by their SMILES.

PRC2 protein complex comprising EZH2(Y641F), sequence (Q15910 whole entry Y641F): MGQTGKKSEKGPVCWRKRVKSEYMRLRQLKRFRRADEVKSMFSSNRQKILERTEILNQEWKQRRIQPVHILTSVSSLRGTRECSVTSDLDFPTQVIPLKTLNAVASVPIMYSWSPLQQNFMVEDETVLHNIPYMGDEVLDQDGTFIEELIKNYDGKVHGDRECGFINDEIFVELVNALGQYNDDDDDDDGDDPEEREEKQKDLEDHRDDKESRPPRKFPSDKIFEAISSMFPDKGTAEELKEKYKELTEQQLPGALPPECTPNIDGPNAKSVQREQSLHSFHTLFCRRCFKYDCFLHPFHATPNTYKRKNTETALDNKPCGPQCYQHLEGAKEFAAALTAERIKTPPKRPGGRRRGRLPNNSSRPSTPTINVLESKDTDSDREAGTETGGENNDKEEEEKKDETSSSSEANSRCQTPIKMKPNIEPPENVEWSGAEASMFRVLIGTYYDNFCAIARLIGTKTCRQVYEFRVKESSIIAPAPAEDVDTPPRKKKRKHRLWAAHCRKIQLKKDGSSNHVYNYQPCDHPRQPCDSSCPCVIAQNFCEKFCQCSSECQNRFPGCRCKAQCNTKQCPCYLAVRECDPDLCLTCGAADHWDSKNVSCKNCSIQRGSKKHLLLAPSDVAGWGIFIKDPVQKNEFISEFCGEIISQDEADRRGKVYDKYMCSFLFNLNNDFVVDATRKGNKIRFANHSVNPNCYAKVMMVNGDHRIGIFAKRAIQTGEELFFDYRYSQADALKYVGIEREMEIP
PRC2 protein complex comprising EZH2(Y641F), sequence (O75530 whole entry partner): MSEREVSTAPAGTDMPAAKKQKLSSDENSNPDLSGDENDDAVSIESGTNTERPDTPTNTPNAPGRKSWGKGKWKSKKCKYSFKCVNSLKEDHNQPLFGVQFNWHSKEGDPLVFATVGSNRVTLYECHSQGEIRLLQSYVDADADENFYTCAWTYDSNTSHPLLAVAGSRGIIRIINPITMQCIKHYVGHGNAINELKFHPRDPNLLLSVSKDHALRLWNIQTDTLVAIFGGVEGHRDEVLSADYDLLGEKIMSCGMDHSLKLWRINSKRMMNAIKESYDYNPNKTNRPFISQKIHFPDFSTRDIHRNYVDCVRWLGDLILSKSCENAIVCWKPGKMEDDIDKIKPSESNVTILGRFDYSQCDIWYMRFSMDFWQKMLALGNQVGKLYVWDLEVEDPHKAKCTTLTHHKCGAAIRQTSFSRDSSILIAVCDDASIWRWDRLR
PRC2 protein complex comprising EZH2(Y641F), sequence (Q15022 whole entry partner): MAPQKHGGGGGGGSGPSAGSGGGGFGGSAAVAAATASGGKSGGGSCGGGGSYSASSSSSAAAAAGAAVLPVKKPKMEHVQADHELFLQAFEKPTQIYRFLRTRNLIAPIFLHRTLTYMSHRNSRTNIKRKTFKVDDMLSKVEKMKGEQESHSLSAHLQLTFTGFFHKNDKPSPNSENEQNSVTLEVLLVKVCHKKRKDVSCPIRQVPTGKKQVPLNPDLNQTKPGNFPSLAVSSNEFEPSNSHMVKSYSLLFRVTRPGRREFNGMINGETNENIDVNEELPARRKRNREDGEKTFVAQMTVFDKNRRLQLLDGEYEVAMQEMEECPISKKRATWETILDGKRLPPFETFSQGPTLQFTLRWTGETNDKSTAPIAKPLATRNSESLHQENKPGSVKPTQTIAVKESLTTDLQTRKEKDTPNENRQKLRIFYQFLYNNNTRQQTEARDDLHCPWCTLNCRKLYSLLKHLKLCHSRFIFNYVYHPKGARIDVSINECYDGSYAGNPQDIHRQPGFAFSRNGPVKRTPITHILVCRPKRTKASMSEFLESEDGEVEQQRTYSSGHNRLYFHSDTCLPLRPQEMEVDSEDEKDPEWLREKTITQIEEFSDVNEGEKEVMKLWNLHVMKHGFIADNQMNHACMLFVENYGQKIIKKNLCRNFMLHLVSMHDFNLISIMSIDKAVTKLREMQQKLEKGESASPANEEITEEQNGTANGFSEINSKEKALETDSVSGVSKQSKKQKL
PRC2 protein complex comprising EZH2(Y641F), sequence (Q09028 whole entry partner): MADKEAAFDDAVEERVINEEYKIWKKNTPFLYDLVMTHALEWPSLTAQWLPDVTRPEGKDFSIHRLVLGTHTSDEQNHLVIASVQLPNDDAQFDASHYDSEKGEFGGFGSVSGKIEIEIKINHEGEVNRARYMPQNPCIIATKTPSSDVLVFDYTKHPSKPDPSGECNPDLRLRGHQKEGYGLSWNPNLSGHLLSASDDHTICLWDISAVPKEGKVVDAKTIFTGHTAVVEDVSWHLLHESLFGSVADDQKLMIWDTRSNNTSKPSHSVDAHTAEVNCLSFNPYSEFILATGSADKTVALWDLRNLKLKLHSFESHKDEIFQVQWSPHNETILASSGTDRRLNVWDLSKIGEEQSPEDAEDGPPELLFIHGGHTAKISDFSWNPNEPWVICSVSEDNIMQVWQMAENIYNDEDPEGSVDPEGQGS
PRC2 protein complex comprising EZH2(Y641F), sequence (Q6ZN18 whole entry partner): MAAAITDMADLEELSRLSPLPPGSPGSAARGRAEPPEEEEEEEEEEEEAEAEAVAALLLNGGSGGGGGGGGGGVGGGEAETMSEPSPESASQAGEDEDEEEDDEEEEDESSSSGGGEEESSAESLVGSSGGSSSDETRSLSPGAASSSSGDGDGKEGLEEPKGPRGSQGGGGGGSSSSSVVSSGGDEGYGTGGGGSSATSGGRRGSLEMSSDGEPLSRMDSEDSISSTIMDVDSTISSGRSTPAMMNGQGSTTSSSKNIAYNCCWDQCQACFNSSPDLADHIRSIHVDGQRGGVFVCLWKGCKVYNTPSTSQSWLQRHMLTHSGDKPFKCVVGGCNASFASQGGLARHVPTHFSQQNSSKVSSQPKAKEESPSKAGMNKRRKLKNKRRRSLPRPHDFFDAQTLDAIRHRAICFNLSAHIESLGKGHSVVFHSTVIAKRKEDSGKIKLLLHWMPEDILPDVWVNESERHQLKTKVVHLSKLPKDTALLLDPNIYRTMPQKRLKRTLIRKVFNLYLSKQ
EZH2, sequence (Q15910 whole entry): as the sequence (Q15910 whole entry Y641F) above, with F641Y counted along it
EZH2, sequence (O75530 whole entry partner): as the sequence (O75530 whole entry partner) above
EZH2, sequence (Q15022 whole entry partner): as the sequence (Q15022 whole entry partner) above
EZH2, sequence (Q09028 whole entry partner): as the sequence (Q09028 whole entry partner) above

Turning to `CCN(C(=O)C1CC1)c1cc(-c2ccc(CN3CCOCC3)cc2)cc(C(=O)NCc2c(C)cc(C)[nH]c2=O)c1C` [Compound 5, N-((4,6-dimethyl-2-oxo-1,2-dihydropyridin-3-yl)methyl)-5-(N-ethylcyclopropanecarboxamido)-4-methyl-4′-(morpholinomethyl)-[1,1′-diphenyl]-3-carboxamide], the IC50 in experiment [1] (Homo sapiens) was found to be 0.086 µM.
Same read-out and setting: to `CCN(C(=O)C1CCCC1)c1cc(-c2ccc(CN3CCOCC3)cc2)cc(C(=O)NCc2c(C)cc(C)[nH]c2=O)c1C` [Compound 16, N-((4,6-dimethyl-2-oxo-1,2-dihydropyridin-3-yl)methyl)-5-(N-ethylcyclopentanecarboxamido)-4-methyl-4′-(morpholinomethyl)-[1,1′-diphenyl]-3-carboxamide] belongs 0.126 µM.
`CCN(C(=O)C1CCCC1)c1cc(-c2ccc(CN3CCN(C(=O)OC(C)(C)C)CC3)cc2)cc(C(=O)NCc2c(C)cc(C)[nH]c2=O)c1C` [Compound 24, tert-butyl-4-((3′-(((4,6-dimethyl-2-oxo-1,2-dihydropyridin-3-yl)methyl)carbamoyl)-5′-(N-ethylcyclopentanecarboxamido)-4′-methyl-[1,1′-diphenyl]-4-yl)methyl)piperazin-1-carboxylate] came in with an IC50 in experiment [1] (Homo sapiens) of 0.073 µM. For the same compound, in experiment [2], 0.0806 µM corresponded to half-maximal inhibition (IC50); the “activity compared with control compounds in the assay using a TR-FRET kit” value (“activity compared with control compounds” for short) is “superior activity than control compounds GSK126 and EPZ6438”.
As to `CCN(C(=O)C1CCCC1)c1cc(-c2ccc(N3CCN(C(=O)OC(C)(C)C)CC3)nc2)cc(C(=O)NCc2c(C)cc(C)[nH]c2=O)c1C` [Compound 29, tertbutyl-4-(5-(3-(((4,6-dimethyl-2-oxo-1,2-dihydropyridin-3-yl)methyl)carbamoyl)-5-(N-ethylcyclopentanecarboxamido)-4-methylphenyl)pyridin-2-yl)piperazin-1-carboxylate], on EZH2, the “1 μM relative fluorescence intensity” value came out at 176.86 and the “10 μM relative fluorescence intensity” value amounted to 364.77. This compound gave a concentration for half-maximal inhibition (IC50) in experiment [1] (Homo sapiens) of 2.6 µM.
For the compound `CCN(C(=O)C1CCCC1)c1cc(-c2ccc(N3CCNCC3)cc2)cc(C(=O)NCc2c(C)cc(C)[nH]c2=O)c1C` [Compound 31, N-((4,6-dimethyl-2-oxo-1,2-dihydropyridin-3-yl)methyl)-5-(N-ethylcyclopentanecarboxamido)-4-methyl-4′-(piperazin-1-yl)-[1,1′-diphenyl]-3-carboxamide], the IC50 in experiment [1] (Homo sapiens) came to 0.087 µM; in experiment [2], 0.444 µM.
In the case of `CCN(C(=O)C1CCCC1)c1cc(-c2ccc(N3CCNCC3)nc2)cc(C(=O)NCc2c(C)cc(C)[nH]c2=O)c1C` [Compound 32, N-((4,6-dimethyl-2-oxo-1,2-dihydropyridin-3-yl)methyl)-3-(N-ethylcyclopentanecarboxamido)-2-methyl-5-(6-(piperazin-1-yl)pyridin-3-yl)-benzamide], the half-inhibitory concentration (IC50) in experiment [1] (Homo sapiens) turned out to be 0.95 µM.
For `CCN(C(=O)C1CCCC1)c1cc(C#N)cc(C(=O)NCc2c(C)cc(C)[nH]c2=O)c1C` [Compound 33, 5-cyano-N-((4,6-dimethyl-2-oxo-1,2-dihydropyridin-3-yl)methyl)-3-(N-ethylcyclopentanecarboxamido)-2-methylbenzamide], at EZH2, the “1 μM relative fluorescence intensity” value is 123.27 and the “10 μM relative fluorescence intensity” value is reported as 224.69. For the same compound, in experiment [1] (Homo sapiens), the IC50 amounted to 0.67 µM.
In the case of `CCN(C(=O)C1CCCC1)c1cc(-c2ccnc(N3CCN(CC4CC4)CC3)c2)cc(C(=O)NCc2c(C)cc(C)[nH]c2=O)c1C` [Compound 38, 5-(2-(4-(cyclopropylmethyl)piperazin-1-yl)pyridin-4-yl)-N-((4,6-dimethyl-2-oxo-1,2-dihydropyridin-3-yl)methyl)-3-(N-ethylcyclopentanecarboxamido)-2-methylbenzamide], the IC50 in experiment [1] (Homo sapiens) was 0.23 µM; in experiment [2], 0.515 µM.
In the case of `CCCc1cc(C)[nH]c(=O)c1CNC(=O)c1cc(-c2ccnc(N3CCN(CC4CC4)CC3)c2)cc(N(CC)C(=O)C2CCCC2)c1C` [Compound 39, 5-(2-(4-(cyclopropylmethyl)piperazin-1-yl)pyridin-4-yl)-3-(N-ethylcyclopentanecarboxamido)-2-methyl-N-((6-methyl-2-oxo-4-propyl-1,2-dihydropyridin-3-yl)methyl)benzamide], the concentration for half-maximal inhibition (IC50) in experiment [1] (Homo sapiens) came out at 0.83 µM.
With `CCN(C(=O)C1CCCC1)c1cc(-c2ccc(OCCN3CCOCC3)cc2)cc(C(=O)NCc2c(C)cc(C)[nH]c2=O)c1C` [Compound 40, N-((4,6-dimethyl-2-oxo-1,2-dihydropyridin-3-yl)methyl)-5-(N-ethylcyclopentanecarboxamido)-4-methyl-4′-(2-morpholinoethoxyl)-[1,1′-diphenyl]-3-carboxamide], the values for the IC50 in experiment [1] (Homo sapiens) and in experiment [2] were 0.24 µM and 0.22 µM, respectively.
Regarding `CCN(C(=O)C1CCCC1)c1cc(-c2ccc(OCCCN3CCOCC3)cc2F)cc(C(=O)NCc2c(C)cc(C)[nH]c2=O)c1C` [Compound 44, N-((4,6-dimethyl-2-oxo-1,2-dihydropyridin-3-yl)methyl)-5-(N-ethylcyclopentanecarboxamido)-2′-fluoro-4-methyl-4′-(3-morpholinopropoxy)-[1,1′-diphenyl]-3-carboxamide], at EZH2, the “1 μM relative fluorescence intensity” value came out at 181.04 and the “10 μM relative fluorescence intensity” value was found to be 217.02.
`CCN(C(=O)C1CCCC1)c1cc(-c2ccc(OCCCN3CCOCC3)cc2C)cc(C(=O)NCc2c(C)cc(C)[nH]c2=O)c1C` [Compound 45, N-((4,6-dimethyl-2-oxo-1,2-dihydropyridin-3-yl)methyl)-5-(N-ethylcyclopentanecarboxamido)-2′,4-methyl-4′-(3-morpholinopropoxy)-[1,1′-diphenyl]-3-carboxamide]: on EZH2, the “1 μM relative fluorescence intensity” value was 189.05 and the “10 μM relative fluorescence intensity” value is reported as 218.76.
As for `CCN(C(=O)C1CC2C=CC1C2)c1cc(-c2ccc(CN3CCOCC3)cc2)cc(C(=O)NCc2c(C)cc(C)[nH]c2=O)c1C` [Compound 60, (1R,4R)—N-(5-(((4,6-dimethyl-2-oxo-1,2-dihydropyridin-3-yl)methyl)carbamoyl-4-methyl-4′-(morpholinomethyl)-[1,1′-diphenyl]-3-yl)-N-ethylbicyclo[2.2.1]hept-5-en-2-carboxamide], at EZH2, the “1 μM relative fluorescence intensity” value is 143 and the “10 μM relative fluorescence intensity” value is given as 171. The “3 μM relative fluorescence intensity” value at EZH2 (compound 3 μM) is 140.
The compound `CCN(C(=O)C1CCCC1)c1cc(-c2ccc(OCCN3CCOCC3)cc2C)cc(C(=O)NCc2c(C)cc(C)[nH]c2=O)c1C` [Compound 63, N-((4,6-dimethyl-2-oxo-1,2-dihydropyridin-3-yl)methyl)-5-(N-ethylcyclopentanecarboxamido)-2′,4-dimethyl-4′-(2-morpholinoethoxyl)-[1,1′-diphenyl]-3-carboxamide] registered an IC50 in experiment [1] (Homo sapiens) of 0.43 µM. Also, in experiment [2], 0.103 µM corresponded to half-maximal inhibition (IC50); the “activity compared with control compounds” value was “superior activity than control compounds GSK126 and EPZ6438”.
In turn, `CCN(C(=O)C1CC1)c1cc(-c2ccc(OCCCN3CCOCC3)cc2C)cc(C(=O)NCc2c(C)cc(C)[nH]c2=O)c1C` [Compound 64, N-((4,6-dimethyl-2-oxo-1,2-dihydropyridin-3-yl)methyl)-5-(N-ethylcyclopropanecarboxamido)-2′,4-dimethyl-4′-(3-morpholinopropoxy)-[1,1′-diphenyl]-3-carboxamide] came in with an IC50 in experiment [1] (Homo sapiens) of 0.03 µM. The “effect compared with control compounds in Western Blot verification on cells” value in experiment [1] is “superior effects than control compounds EPZ6438 and GSK126”. Moreover, in experiment [2], 0.103 µM corresponded to half-maximal inhibition (IC50); the “activity compared with control compounds” value was “superior activity than control compounds GSK126 and EPZ6438”.
`CCN(C(=O)C1CC1)c1cc(-c2ccc(OCCCN3CCOCC3)c(F)c2)cc(C(=O)NCc2c(C)cc(C)[nH]c2=O)c1C` [Compound 65, N-((4,6-dimethyl-2-oxo-1,2-dihydropyridin-3-yl)methyl)-5-(N-ethylcyclopropanecarboxamido)-3′-fluoro-4-methyl-4′-(3-morpholinopropoxy)-[1,1′-diphenyl]-3-carboxamide]: the IC50 was determined as 0.024 µM in experiment [1] (Homo sapiens) and 0.029 µM in experiment [2]. For the same compound, the “effect compared with control compounds in Western Blot verification on cells” value in experiment [1] was “superior effects than control compounds EPZ6438 and GSK126”. The “activity compared with control compounds” value in experiment [2] is “superior activity than control compounds GSK126 and EPZ6438”.
On to `CC[C@H](C)n1cc(C)c2c(C(=O)NCc3c(C)cc(C)[nH]c3=O)cc(-c3ccc(N4CCNCC4)nc3)cc21` [GSK126, reference compound], for which, in experiment [1], the IC50 was determined as 1.4 µM.
